Entries after “also recorded” stand apart in the source; their conditions may differ. Read-outs that look alike come from different tables or passages of the source.

Data on 3 compounds can be found in US10660878B2, “Methods of treating dementia and pharmaceutical compositions thereof” (H. Lundbeck A/S, priority 2012, dated 2020).

Series [1] can be described thus: Phase I PK study in the elderly and AD study 12936A pharmacokinetics. The settings on record: for half-life: human, plasma, read-out: elimination half life (converted). The series is classed as in vivo, human. The method, then:
In total, the dataset used in the popPK model consisted of 265 patients. The doses administered, single or multiple, were in the range of 9.0-300 mg.

Series [2] deals with patients with schizophrenia. In words: Study 12450A, adjunctive treatment to risperidone in schizophrenia. The settings on record: 120 mg/day BID. The series is classed as in vivo, human. The protocol:
Overall improvement in schizophrenia symptoms was assessed by using the Positive and Negative Syndrome Scale (PANSS) total score.
(§1) The AD study cited in the Background section is referred to in this application as study 12936A. The schizophrenia study cited in the Background section is referred to in this application as study 12450A.

Series [3] concerns patients with Alzheimer's disease. Kind of series: Study 12936A, adjunctive treatment to donepezil in Alzheimer's disease. The format is in vivo, human. The settings on record: 90 mg daily (3×30 mg) plus 10 mg/day of donepezil.
Source text: In 2012, it was reported that a randomized, double blind, placebo controlled trial conducted in Europe, Canada and Australia met its primary endpoint in the treatment of AD.
An issue for that dose selection was to ensure that the maximum exposure level fell under the maximum exposure limit which had been established from non-clinical toxicology studies. Accordingly, a fixed dose of three times in the study was introduced.
as §1

A short description of series [4]: Plasma concentration of Compound I (PK) in PET study Part B. The format is in vivo, human. The settings on record: P2 scans, post-dose duration 10-51 hours. The protocol: Dosing schemes include 5 mg (5Q; Part B4) once daily or QD, 30 mg QD (30Q; Part B3), 30 mg b.i.d. (30B; Part B2), and 60 mg b.i.d (60B; Part B1). […] Model 2 was supported over Model 1 in Pu, CN, and vS by Akaike information criterion (AIC; The smaller the AIC value the better the fit) (Akaike 1974) and F-test comparing residual sums of squares (RSS) of the two models (Table 1).

Series [5] addresses T1, 5-HT6 receptor (Homo sapiens, UniProt P50406). Kind of series: PET 5-HT6 receptor occupancy after multiple oral doses, [^11C]LuPET radioligand (Part B). The format is in vivo. On the set-up: from tissue; host or cells: brain of living healthy male subjects (putamen, caudate nucleus, ventral striatum), in vivo PET. The method, then: (§2) As the radioligand has not previously been dosed to humans it was initially evaluated in the human brain to identify an optimal method for quantification and validate the radioligand as a PET tracer (Part A).
Eight healthy male subjects (Age: 30.6±7.7 years; range: 22-44 years) participated in Part A, and sixteen healthy male subjects (Age: 32.3±7.6 years; range: 21-44 years) participated in Part B of this study.
(§3) PET studies were performed on the GE Advance Tomograph (GE Medical Systems, Waukesha, Wis., USA). Subjects had one venous catheter for the radioligand injection, and one arterial catheter to obtain arterial blood samples for the determination of radioactivity in plasma. Then, subjects were positioned in the scanner with the head restrained with a custom-made thermoplastic mask to reduce the head motion during PET data acquisition. Then, a 10 minute attenuation scan was performed using a rotating ^68Ge source for attenuation correction. Dynamic PET acquisition was then performed in a three-dimensional mode for 90 min following an intravenous bolus injection of [^11C]LuPET. A total of 30 PET frames were obtained (4×15, 4×30, 3×60, 2×120, 5×240, and 12×300 seconds). […] Selected samples taken at 0, 5, 10, 30, 45, 60, and 90 min were analyzed by HPLC for the presence of the radioligand and its radioactive metabolites as described elsewhere (Hilton et al., 2000).
Volumes of interest (VOIs): Cortical VOIs were automatically defined using Freesurfer software and combined into standard regions including: frontal (Fr), temporal (Tp), parietal (Pa), and occipital (Oc) cortices, fusiform gyms (Fs), cingulate (Cg), and insula (In). Subcortical regions were defined with FIRST software (Patenaude et al., 2011) and manually adjusted on individual MRIs. Subcortical regions included putamen (Pu), caudate nucleus (CN), ventral striatum (vS), globus pallidus (GP), thalamus (Th), hippocampus (Hp), and amygdala (Am). VOIs were transferred from MRI to PET spaces following MRI-to-PET coregistration parameters given by SPMS (Ashbumer J, Friston 2003; Macs et al., 1997) to obtain time-activity curves (TACs) of regions. A total of 25 regions per scan were employed for methodological evaluations (Part A) while occupancy calculation was limited to Pu, CN, and vS (Part B).
Derivation of PET outcome variables: Primary PET outcome variables are total distribution volume, VT and binding potential, BPND (=fND·Bavail/KD, where fND refers to the fraction of non-displaceable compartment, Bavail stands for the density of available (unoccupied) 5-HT6 receptors, and KD stands for the dissociation constant; Innis et al., 2007).
A set of standard plasma input methods were employed to identify the optimal method for derivation of regional distribution volume (VT) for [^11C]LuPET including, a one tissue compartmental model (OTCM) with three parameters (K1, and k2′; See Koeppe et al., 1991 for the definitions, and v0, tissue vascular volume), two tissue compartmental models with five parameters (K1, k2, k3, k4, and v0; See Innis et al., 2007 for the definitions), without and with constraining the K1-k2 ratio (non-displaceable distribution volume, VND (Abi-Dargham et al., 1994) to the cerebellum estimate (TTCM-UC and TTCM-C, respectively), and the plasma reference graphical analysis (PRGA; Logan et al., 1990). In TTCM-UC and TTCM-C, BPND was given as the k3-k4 ratio.
In addition, tissue reference methods, namely the multilinear reference tissue method with 2 parameters (MRTM2; Ichise et al., 2002) and reference tissue graphical analysis (RTGA; Logan et al., 1996) were applied.
Akaike information criteria (AIC; Akaike 1974; Burnham and Anderson 2004) was used to examine goodness of fit for compartmental models and for the examination of occupancy-PK relationships using Equation 3. Results

Series [6] deals with T1, 5-HT6 receptor. Kind of series: PK/PD Emax model of 5-HT6 occupancy fitted to PET data. The series is classed as in vivo. On the set-up: from tissue; host or cells: brain of living healthy male subjects (putamen, caudate nucleus, ventral striatum), in vivo PET. Conditions: caudate nucleus region; non-linear mixed effect modelling. The method, then:
In total three PET scans were performed per subject, the first at baseline, the second around tmax on last day of dosing and the last in the interval 10-51 hours post dose on the last day of dosing.
In order to allow for estimation of the inter-subject variability in the occupancy, non-linear mixed effect modelling was performed where the inter-subject variability was modelled as an exponential term on EC50.

The nature of series [7]: Evaluation of [^11C]LuPET as PET tracer in the human brain. The series is classed as in vivo. The method, then: as §2
as §3, with “2000). […]” for “2000).”

The target of series [8] is T1, 5-HT6 receptor. Kind of series: Displacement of [^11C]LuPET binding by olanzapine, PET (Part A). The settings on record: one dose of 10 mg, scan 5 hours after dose; across brain regions.
Source text: In Part A, baseline scans were repeated on the same day (n=1) or separate days (n=7) ranging from 1 to 18 days apart to test reproducibility of PET outcome variables.
[formula] where superscripts indicate BPND of baseline (B) and post-dose (D), respectively.
Setting [9] is: Caudate nucleus (CN), PRGA, 3H + P2 pooled.
Setting [10] is: Caudate nucleus (CN), PRGA, 3H scans.
The mark [11] stands for this setting: Caudate nucleus (CN), PRGA, P2 scans.
Where [12] appears, read: Caudate nucleus (CN), RTGA, 3H + P2 pooled.
Setting [13] is: Caudate nucleus (CN), RTGA, 3H scans.
[14] abbreviates: Caudate nucleus (CN), RTGA, P2 scans.
[15] abbreviates: Putamen (Pu), PRGA, 3H + P2 pooled.
[16] abbreviates: Ventral striatum (vS), PRGA, 3H + P2 pooled.
Setting [17] is: Ventral striatum (vS), PRGA, 3H scans.
[18] abbreviates: Ventral striatum (vS), PRGA, P2 scans.

T1 sequence (P50406 whole entry): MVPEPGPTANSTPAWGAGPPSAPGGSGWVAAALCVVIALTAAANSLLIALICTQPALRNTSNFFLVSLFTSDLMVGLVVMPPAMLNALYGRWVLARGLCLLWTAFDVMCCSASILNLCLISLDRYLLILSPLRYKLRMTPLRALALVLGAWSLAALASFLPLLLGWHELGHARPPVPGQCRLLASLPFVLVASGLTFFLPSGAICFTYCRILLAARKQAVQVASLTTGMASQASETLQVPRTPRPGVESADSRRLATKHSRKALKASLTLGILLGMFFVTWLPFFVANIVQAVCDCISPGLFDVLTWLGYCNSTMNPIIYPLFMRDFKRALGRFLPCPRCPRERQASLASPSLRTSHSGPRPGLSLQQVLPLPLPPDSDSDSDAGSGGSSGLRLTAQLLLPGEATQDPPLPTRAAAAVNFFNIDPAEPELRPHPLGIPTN

For `Fc1ccc2c(CCNCc3cccc(OCC(F)(F)C(F)F)c3)c[nH]c2c1` [Compound I, N-[2-(6-fluoro-1H-indol-3-yl)ethyl]-3-(2,2,3,3-tetrafluoropropoxy)benzylamine], the clearance entry in series [1] (elderly compared to younger subjects) is reported as “reduced”. For the same compound, the half-life in series [1] (elderly population) was around 19 h; in series [1] (young healthy subjects) it was around 12 h. For the same compound, the “PANSS total score vs placebo” value in series [2] is given as “did not offer any treatment advantage over placebo”. The “overall neurocognitive performance (BACS composite Z-score, PANSS cognitive subscale scores) vs placebo” value in series [2] is on record as “did not appear to be any treatment advantage over placebo”. Moreover, the “secondary endpoints (global impression, daily living activities) vs donepezil treated patients” value in series [3] is on record as “positive results”. For the same compound, the “cognitive function (ADAS-cog) vs placebo plus donepezil” value in series [3] (278 patients) was “significantly improved”. For the same compound, the “PK range (plasma concentration)” value in series [4] was in the range of 0.54 to 204 ng/mL. Further, the receptor occupancy at 30 mg was above 85% on 5-HT6 receptor [5] (30 mg BID, at Cmax) and around 80% at 5-HT6 receptor [5] (30 mg QD, at Cmax). This compound also yielded a receptor occupancy at 60 mg at 5-HT6 receptor [5] (60 mg BID, at Cmax) above 90%. The “PK values predicted to generate 80% occupancy” value at 5-HT6 receptor [5] (CN and vS by PRGA) is “about 120 ng/mL”; on 5-HT6 receptor [5] (CN by RTGA) it was “about 100 ng/mL”; at 5-HT6 receptor [5] (Pu by PRGA) it was “about 50 ng/mL”. Moreover, the “80% RO (PK predicted to exert 80% occupancy)” value on 5-HT6 receptor [5] (setting [9]) was 51.1 ng/mL; at 5-HT6 receptor [5] (setting [10]), 50.1 ng/mL; at 5-HT6 receptor [5] (setting [11]), 48.0 ng/mL; on 5-HT6 receptor [5] (setting [12]), 108.4 ng/mL; on 5-HT6 receptor [5] (setting [13]) it was 102.8 ng/mL; on 5-HT6 receptor [5] (setting [14]) it was 101.5 ng/mL. Besides, the “80% RO (PK predicted to exert 80% occupancy)” value on 5-HT6 receptor [5] (setting [15]) is on record as 131.7 ng/mL; at 5-HT6 receptor [5] (Putamen (Pu), PRGA, 3H scans), 137.8 ng/mL; on 5-HT6 receptor [5] (Putamen (Pu), PRGA, P2 scans), 116.7 ng/mL; on 5-HT6 receptor [5] (setting [16]) it was 121.0 ng/mL; on 5-HT6 receptor [5] (setting [17]) it was 66.5 ng/mL; on 5-HT6 receptor [5] (setting [18]), 133.5 ng/mL. The Omax at 5-HT6 receptor [5] (setting [9]) is 91.3%; at 5-HT6 receptor [5] (setting [10]), 90.3%; on 5-HT6 receptor [5] (setting [11]) it was 93.9%; at 5-HT6 receptor [5] (setting [12]), 85.7%; at 5-HT6 receptor [5] (setting [13]), 85.2%; at 5-HT6 receptor [5] (setting [14]) it was 87.1%. Also, the Omax was 83.2% on 5-HT6 receptor [5] (setting [15]); 82.8% at 5-HT6 receptor [5] (Putamen (Pu), PRGA, 3H scans); 83.8% at 5-HT6 receptor [5] (Putamen (Pu), PRGA, P2 scans); 77.3% on 5-HT6 receptor [5] (Putamen (Pu), RTGA, 3H + P2 pooled); 7.5% on 5-HT6 receptor [5] (Putamen (Pu), RTGA, 3H scans); 76.6% on 5-HT6 receptor [5] (Putamen (Pu), RTGA, P2 scans). The Omax on 5-HT6 receptor [5] (setting [16]) amounted to 86.0%; at 5-HT6 receptor [5] (setting [17]) it was 85.5%; at 5-HT6 receptor [5] (setting [18]), 89.7%; at 5-HT6 receptor [5] (Ventral striatum (vS), RTGA, 3H + P2 pooled), 76.5%; at 5-HT6 receptor [5] (Ventral striatum (vS), RTGA, 3H scans), 78.2%; on 5-HT6 receptor [5] (Ventral striatum (vS), RTGA, P2 scans) it was 72.1%. For the same compound, the Omax entry on 5-HT6 receptor [5] (oral administration, overall study estimate based on Pu and CN) was “about 90%”. For the same compound, the “5-HT6 receptor occupancy 24 hours post dose” value at 5-HT6 receptor [5] (after multiple dosages, 24 hours post dose vs Cmax) is given as “only decreased slightly; also recorded: maintained”. Moreover, on 5-HT6 receptor [6], the “Emax (maximal occupancy)” value is on record as 91%.

On to `[11CH3]N1CCN(c2cccc3cc(S(=O)(=O)c4ccccc4)cnc23)CC1` [[^11C]LuPET], for which, in series [7] (cerebellum (Cb), mean across baseline scans, TTCM-UC), the “k2 (brain-to-blood clearance rate constant)” value came out at 0.076 min⁻¹. In addition, the “distribution volume VT” value in series [7] (striatum target regions) is reported as around 10 mL/mL.

Take `Cc1cc2c(s1)Nc1ccccc1N=C2N1CCN(C)CC1` [olanzapine]: the “displacement of binding of [^11C]LuPET” value at 5-HT6 receptor [8] is given as “about 80%”.
